Measured values from patent US8741889B2, “Method of treating non-small cell lung cancer and colon cancer with gamma-secretase inhibitor” (Hoffmann-La Roche Inc, priority 2008, dated 2014).

What was measured:
A549 cells = test: FACS cell cycle analysis in A549 cells; format: cell-based, human
Procedure: The A549 cell line was obtained from the American Tissue Culture Collection (ATCC), Manassas, Va. and maintained in Ham's media supplemented with 10% heat-inactivated Fetal Bovine Serum (HI-FBS; GIBCO/BRL, Gaithersburg, Md.) and 2 mM L-glutamine (GIBCO/BRL). 1×10^6 A549 cells were seeded in […] plates for FACS analysis and 3×10^5 cells per well were seeded in 6-well plate for Western blot analysis. Cells were allowed to attach for 24 hours and then treated with compound (1) compound at the following concentrations: 0.1, 0.25, 0.5, 1, 2.5 and 5 μM. Cells were incubated for either 72 or 120 hours and collected for FACS analysis.
Cells were incubated with compound (1) for 72 or 120 hours, harvested by scraping, washed twice in phosphate-buffered saline (PBS), spun down at 1.5×10^3 rpm, and fixed at −20° C. overnight with 70% ethanol. Cells were then analyzed using MPM2-FITC and propidium iodide (PI) double staining (Becton Dickinson, San Jose, Calif.). Briefly, cells were washed twice with cold PBS containing 0.05% Tween-20 (PBST), incubated for 2 hours with anti-Phospho Ser/Thr MPM2 antibody (#05-368, Upstate/Millipore, Bullerica, Mass.), washed with PBST again, incubated in the dark with secondary IgG-FITC antibody (#AP308F, Chemicon, Temecula, Calif.), washed with PBST and incubated with PI/RNase solution (Becton Dickinson, San Jose, Calif.) for additional 30 min at 37° C.
Samples were analyzed on a FACScan flow cytometer (Becton Dickinson, San Jose, Calif.) equipped with a 488 nm argon ion laser. Green fluorescein isothiocyanate (FITC) fluorescence was collected with a 530/30 nm bandpass filter using logarithmic amplification and orange emission from propidium iodide (PI) was filtered through a 585/42 nm bandpass filter using linear amplification. A minimum of 20,000 events was collected on each sample. Cell cycle analysis of DNA histograms was performed with FlowJo software (Tree Star Inc., Ashland, Oreg.).

[1] = system: MiaPaca2 human pancreatic carcinoma xenografts; test: Antitumor efficacy in MiaPaca2 pancreatic xenografts in nude mice; format: in vivo; conditions: day 37
Procedure: Female (athymic nu/nu) nude mice were obtained from Charles River Laboratories (Wilmington, Mass.), while female SCID-beige mice were purchased from Taconic (Germantown, N.Y.). Mice were used when they were approximately 8-12 weeks old (nudes) or 8-10 weeks old (SCID-beige), and weighed approximately 23-25 grams. The health of all animals was determined daily by gross observation of experimental animals and by the analyses of blood samples of sentinel animals that were housed on the shared shelf racks. All animals were allowed to acclimate and recover from any shipping related stress for a minimum of 72 hours prior to experimental use. Autoclaved water and irradiated food [5058-ms Pico chow (mouse) Purina, Richmond, Ind.] were provided ad libitum, and the animals were maintained on a 12 hour light and dark cycle. Cages, bedding and water bottles were autoclaved before use and were changed weekly. MiaPaca2, AsPC1 and BxPC3 human pancreatic carcinoma cells were purchased from ATCC (Manassas, Va.). BxPC3 and AsPC1 cells were grown in RPMI medium and MiaPaca2 cells were grown in Dulbecco's Modified Essential Medium (DMEM). All culture media were supplemented with 10% (v/v) FBS and 1% (v/v) […]. […] SCID-biege mice were implanted se with 5×10^6 BxPC3 cells in a 1:1 mixture of matrigel:PBS in a volume of 0.2 ml per mouse in the right hind flank on May 22, 2007. […] Formulated compound and vehicle were stored at 4° C. and prepared weekly. The suspension was mixed vigorously prior to administration. Gemcitabine (Gemzar®, Eli Lilly and Company, Indianapolis, Ind., USA) was reconstituted with sterile saline to yield a stock solution of 38 mg/ml for the entire 3-4 week study. […] Nude mice implanted with MiaPaca2 or AsPC1 xenografts were randomized on day 17 and day 9 post cell implant, respectively. SCID-beige mice bearing BxPC3 xenografts were randomized 8 days post implant. […] Treatment for the MiaPaca2 study began on Feb. […] For the MiaPaca2 and AsPC1 studies, qd Compound (1) suspension or q3d gemcitabine treatment ended on day 37 post tumor cell implant, whereas for the BxPC3 study, qd Compound (1) suspension or q3d gemcitabine treatment ended on day 35 post tumor cell implant. For intermittent dosing of Compound (1) suspension in the MiaPaca2 study using the 7+/7−/7+ schedule, treatment ended on day 23, was reinitiated on day 31, and ended day 37. In the combination groups Compound (1) suspension was given sequentially with gemcitabine using the 7+/7−/7+ schedule so that Compound (1) was dosed daily only during the first and third weeks, whereas gemcitabine was dosed q3d during the second week only. Efficacy data was graphically represented as the mean tumor volume+standard error of the mean (SEM). Tumor volumes of treated groups were presented as percentages of tumor volumes of the control groups (% T/C), using the formula: 100×((T−T0)/(C−C0)), where T represented mean tumor volume of a treated group on a specific day during the experiment, T0 represented mean tumor volume of the same […] on the first day of treatment; C represented mean tumor volume of a control group on the specific day during the experiment, and C0 represented mean tumor volume of the same treated group on the first day of treatment. Tumor volume (in cubic millimeters) was calculated using the ellipsoid formula: (D×(d2))/2 where ‘D’ represents the large diameter of the tumor, and ‘d’ represents the small diameter. In some cases, tumor regression and/or percent change in tumor volume was calculated using the formula: ((T−T0)/T0)×100 where ‘T’ represents mean tumor volume of the treated group at a particular day, and ‘T0’ represents mean tumor volume of the same treated group at initiation of treatment. Statistical analysis was determined by the rank sum test and One Way Anova and a post-hoc Bonferroni t-test (SigmaStat, version 2.0, Jandel Scientific, San Francisco, Calif.). […]

For `CC(C)(C(=O)NCC(F)(F)C(F)(F)F)C(=O)N[C@@H]1C(=O)Nc2ccccc2-c2ccccc21` [Compound (1), 2,2-Dimethyl-N—((S)-6-oxo-6,7-dihydro-5H-dibenzo[b,d]azepin-7-yl)-N′-(2,2,3,3,3-pentafluoro-propyl)-malonamide], which “G1, %” value (A549 cells; 0.10 μM, 72 hrs) is on record?
Its value is 63.1%.

What about the “G2/M, %” value (A549 cells; 0.10 μM, 72 hrs) of the same compound?
Its value is 23.3%.

What about the “subG1, %” value (A549 cells; 0.10 μM, 72 hrs) of the same compound?
Its value is 6.5%.

What about the “G1, %” value (A549 cells; 0.10 μM, 120 hrs) of the same compound?
The value was 59.0%.

And the “G2/M, %” value (A549 cells; 0.10 μM, 120 hrs)?
The value was 24.1%.

What about the “subG1, %” value (A549 cells; 0.10 μM, 120 hrs) of the same compound?
The value was 6.8%.

And the “G1, %” value (A549 cells; 0.25 μM, 72 hrs)?
Its value is 64.8%.

And the “G2/M, %” value (A549 cells; 0.25 μM, 72 hrs)?
Its value is 20.3%.

What about the “subG1, %” value (A549 cells; 0.25 μM, 72 hrs) of the same compound?
Its value is 5.9%.

And the “G1, %” value (A549 cells; 0.25 μM, 120 hrs)?
The value was 61.1%.

And the “G2/M, %” value (A549 cells; 0.25 μM, 120 hrs)?
Its value is 23.8%.

And the “subG1, %” value (A549 cells; 0.25 μM, 120 hrs)?
Its value is 6.7%.

And the “G1, %” value (A549 cells; 0.50 μM, 72 hrs)?
Its value is 66.6%.

And the “G2/M, %” value (A549 cells; 0.50 μM, 72 hrs)?
Its value is 19.4%.

And the “subG1, %” value (A549 cells; 0.50 μM, 72 hrs)?
Its value is 4.3%.

And the “G1, %” value (A549 cells; 0.50 μM, 120 hrs)?
The value was 58.6%.

And the “G2/M, %” value (A549 cells; 0.50 μM, 120 hrs)?
The value was 23.3%.

What about the “subG1, %” value (A549 cells; 0.50 μM, 120 hrs) of the same compound?
The value was 9.6%.

And the “G1, %” value (A549 cells; 1.0 μM, 72 hrs)?
Its value is 64%.

And the “G2/M, %” value (A549 cells; 1.0 μM, 72 hrs)?
Its value is 21.5%.

And the “subG1, %” value (A549 cells; 1.0 μM, 72 hrs)?
The value was 6.6%.

And the “G1, %” value (A549 cells; 1.0 μM, 120 hrs)?
The value was 60.9%.

And the “G2/M, %” value (A549 cells; 1.0 μM, 120 hrs)?
The value was 19.8%.

What about the “subG1, %” value (A549 cells; 1.0 μM, 120 hrs) of the same compound?
The value was 8.0%.

What about the “G1, %” value (A549 cells; 5.0 μM, 72 hrs) of the same compound?
Its value is 64.9%.

What about the “G2/M, %” value (A549 cells; 5.0 μM, 72 hrs) of the same compound?
The value was 20%.

And the “subG1, %” value (A549 cells; 5.0 μM, 72 hrs)?
Its value is 8.4%.

And the “G1, %” value (A549 cells; 5.0 μM, 120 hrs)?
Its value is 58.7%.

And the “G2/M, %” value (A549 cells; 5.0 μM, 120 hrs)?
Its value is 18.3%.

What about the “subG1, %” value (A549 cells; 5.0 μM, 120 hrs) of the same compound?
The value was 13.7%.

And the “% TGI” value ([1]; 1 mg/kg po qd × 21 days)?
Its value is 39%.

And the “% TGI” value ([1]; 3 mg/kg po qd × 21 days)?
Its value is 42%.

What about the “% TGI” value ([1]; 10 mg/kg po qd × 21 days) of the same compound?
The value was 53%.

And the “% TGI” value ([1]; 10 mg/kg po, 7+/7−/7+)?
The value was 51%.

What about the “% TGI” value ([1]; 30 mg/kg po, 7+/7−/7+) of the same compound?
The value was 58%.

And the “% TGI” value ([1]; 60 mg/kg po, 7+/7−/7+)?
The value was 48%.
